Key:
Format in all cases: functional, cell-based
[1] = test system: HepG2; test: Antiproliferative activity against human HepG2 cells after 48 hrs by MTT assay; settings: HepG2, 48 h
[2] = test system: PC-3; test: Antiproliferative activity against human PC3 cells after 48 hrs by MTT assay; settings: PC-3, 48 h
[3] = test system: A549; test: Antiproliferative activity against human A549 cells after 48 hrs by MTT assay; settings: A549, 48 h
[4] = test system: U-937; test: Antiproliferative activity against human U937 cells after 48 hrs by MTT assay; settings: U-937, 48 h
[5] = test system: HL-60; test: Antiproliferative activity against human HL60 cells after 48 hrs by MTT assay; settings: HL-60, 48 h
[6] = test system: HT-29; test: Antiproliferative activity against human HT-29 cells after 48 hrs by MTT assay; settings: HT-29, 48 h

Row | Compound | IC50 [1] [µM] | IC50 [2] [µM] | IC50 [3] [µM] | IC50 [4] [µM] | IC50 [5] [µM] | IC50 [6] [µM]
1 | C[C@@H]1O[C@@H](O[C@H]2[C@H](O[C@H]3CC[C@]4(C)[C@H]5CC=C6[C@@H]7CC(C)(C)CC[C@]7(C(=O)NCc7cn(-c8ccccc8Br)nn7)CC[C@@]6(C)[C@]5(C)CC[C@H]4C3(C)C)OC[C@H](O[C@@H]3O[C@H](CO)[C@@H](O)[C@H](O)[C@H]3O)[C@@H]2O)[C@H](O)[C@H](O)[C@H]1O | 2.95 | 5.29 | 2.08 | 0.78 | 3.11 | 5.11
2 | C[C@@H]1O[C@@H](O[C@H]2[C@H](O[C@H]3CC[C@]4(C)[C@H]5CC=C6[C@@H]7CC(C)(C)CC[C@]7(C(=O)NCc7cn(-c8c(Cl)cccc8Cl)nn7)CC[C@@]6(C)[C@]5(C)CC[C@H]4C3(C)C)OC[C@H](O[C@@H]3O[C@H](CO)[C@@H](O)[C@H](O)[C@H]3O)[C@@H]2O)[C@H](O)[C@H](O)[C@H]1O | 23 | 41.9 | 6.68 | 18.4 | 28.2 | 37.8
3 | C[C@@H]1O[C@@H](O[C@H]2[C@H](O[C@H]3CC[C@]4(C)[C@H]5CC=C6[C@@H]7CC(C)(C)CC[C@]7(C(=O)NCc7cn(-c8ccc([N+](=O)[O-])cc8)nn7)CC[C@@]6(C)[C@]5(C)CC[C@H]4C3(C)C)OC[C@H](O[C@@H]3O[C@H](CO)[C@@H](O)[C@H](O)[C@H]3O)[C@@H]2O)[C@H](O)[C@H](O)[C@H]1O | 26.6 | 5.56 | 3.98 | 6.85 | 21.1 | 3.04
4 | C[C@@H]1O[C@@H](O[C@H]2[C@H](O[C@H]3CC[C@]4(C)[C@H]5CC=C6[C@@H]7CC(C)(C)CC[C@]7(C(=O)NCc7cn(-c8ccccc8[N+](=O)[O-])nn7)CC[C@@]6(C)[C@]5(C)CC[C@H]4C3(C)C)OC[C@H](O[C@@H]3O[C@H](CO)[C@@H](O)[C@H](O)[C@H]3O)[C@@H]2O)[C@H](O)[C@H](O)[C@H]1O | 34.9 | 50.5 | 54.9 | 40.1 | 36.7 | 7.76
5 | C[C@@H]1O[C@@H](O[C@H]2[C@H](O[C@H]3CC[C@]4(C)[C@H]5CC=C6[C@@H]7CC(C)(C)CC[C@]7(C(=O)NCc7cn(-c8ccccc8F)nn7)CC[C@@]6(C)[C@]5(C)CC[C@H]4C3(C)C)OC[C@H](O[C@@H]3O[C@H](CO)[C@@H](O)[C@H](O)[C@H]3O)[C@@H]2O)[C@H](O)[C@H](O)[C@H]1O | 5.39 | 39.3 | 7.09 | 4.51 | 5.45 | 30.9
6 | C[C@@H]1O[C@@H](O[C@H]2[C@H](O[C@H]3CC[C@]4(C)[C@H]5CC=C6[C@@H]7CC(C)(C)CC[C@]7(C(=O)NCc7cn(-c8cccnc8)nn7)CC[C@@]6(C)[C@]5(C)CC[C@H]4C3(C)C)OC[C@H](O[C@@H]3O[C@H](CO)[C@@H](O)[C@H](O)[C@H]3O)[C@@H]2O)[C@H](O)[C@H](O)[C@H]1O | 20.1 | 41.1 | 47.2 | 9.03 | 9.94 | 37.8
7 | C[C@@H]1O[C@@H](O[C@H]2[C@H](O[C@H]3CC[C@]4(C)[C@H]5CC=C6[C@@H]7CC(C)(C)CC[C@]7(C(=O)NCc7cn(-c8cccc(F)c8)nn7)CC[C@@]6(C)[C@]5(C)CC[C@H]4C3(C)C)OC[C@H](O[C@@H]3O[C@H](CO)[C@@H](O)[C@H](O)[C@H]3O)[C@@H]2O)[C@H](O)[C@H](O)[C@H]1O | 0.9 | 0.72 | 4.25 | 3.12 | 1.32 | 2.23
8 | COc1ccc(-n2cc(CNC(=O)[C@]34CCC(C)(C)C[C@H]3C3=CC[C@@H]5[C@@]6(C)CC[C@H](O[C@@H]7OC[C@H](O[C@@H]8O[C@H](CO)[C@@H](O)[C@H](O)[C@H]8O)[C@H](O)[C@H]7O[C@@H]7O[C@@H](C)[C@H](O)[C@@H](O)[C@H]7O)C(C)(C)[C@@H]6CC[C@@]5(C)[C@]3(C)CC4)nn2)cc1 | 3.58 | 0.55 | 4.86 | 0.79 | 2.48 | 1.13
9 | CC(=O)c1ccc(-n2cc(CNC(=O)[C@]34CCC(C)(C)C[C@H]3C3=CC[C@@H]5[C@@]6(C)CC[C@H](O[C@@H]7OC[C@H](O[C@@H]8O[C@H](CO)[C@@H](O)[C@H](O)[C@H]8O)[C@H](O)[C@H]7O[C@@H]7O[C@@H](C)[C@H](O)[C@@H](O)[C@H]7O)C(C)(C)[C@@H]6CC[C@@]5(C)[C@]3(C)CC4)nn2)cc1 | 33 | 46.9 | 0.28 | 0.78 | 4.66 | 6.42
10 | C[C@@H]1O[C@@H](O[C@H]2[C@H](O[C@H]3CC[C@]4(C)[C@H]5CC=C6[C@@H]7CC(C)(C)CC[C@]7(C(=O)NCc7cn(-c8ccc(F)cc8)nn7)CC[C@@]6(C)[C@]5(C)CC[C@H]4C3(C)C)OC[C@H](O[C@@H]3O[C@H](CO)[C@@H](O)[C@H](O)[C@H]3O)[C@@H]2O)[C@H](O)[C@H](O)[C@H]1O | 3.18 | 5.78 | 1.02 | 0.48 | 1.8 | 2.32
11 | COc1cccc(-n2cc(CNC(=O)[C@]34CCC(C)(C)C[C@H]3C3=CC[C@@H]5[C@@]6(C)CC[C@H](O[C@@H]7OC[C@H](O[C@@H]8O[C@H](CO)[C@@H](O)[C@H](O)[C@H]8O)[C@H](O)[C@H]7O[C@@H]7O[C@@H](C)[C@H](O)[C@@H](O)[C@H]7O)C(C)(C)[C@@H]6CC[C@@]5(C)[C@]3(C)CC4)nn2)c1 | 1.66 | 0.23 | 2.45 | 5.9 | 5.66 | 3.48
12 | CC(=O)c1ccccc1-n1cc(CNC(=O)[C@]23CCC(C)(C)C[C@H]2C2=CC[C@@H]4[C@@]5(C)CC[C@H](O[C@@H]6OC[C@H](O[C@@H]7O[C@H](CO)[C@@H](O)[C@H](O)[C@H]7O)[C@H](O)[C@H]6O[C@@H]6O[C@@H](C)[C@H](O)[C@@H](O)[C@H]6O)C(C)(C)[C@@H]5CC[C@@]4(C)[C@]2(C)CC3)nn1 | 12.4 | 49.6 | 10.5 | 11.3 | 14.3 | 35.6
13 | CC(=O)c1cccc(-n2cc(CNC(=O)[C@]34CCC(C)(C)C[C@H]3C3=CC[C@@H]5[C@@]6(C)CC[C@H](O[C@@H]7OC[C@H](O[C@@H]8O[C@H](CO)[C@@H](O)[C@H](O)[C@H]8O)[C@H](O)[C@H]7O[C@@H]7O[C@@H](C)[C@H](O)[C@@H](O)[C@H]7O)C(C)(C)[C@@H]6CC[C@@]5(C)[C@]3(C)CC4)nn2)c1 | 0.5 | 6.28 | 0.44 | 0.81 | 5.66 | 3.33

From ChEMBL document CHEMBL4229426, “Synthesis, antitumor activity evaluation and mechanistic study of novel hederacolchiside A1 derivatives bearing an aryl triazole moiety” (Bioorg Med Chem, 2018)
